Data as given in patent US20250282770A1, “BIOLUMINESCENT PROBES TO TRACK STEM CELLS IN VIVO” (THE BOARD OF TRUSTEES OF THE UNIVERSITY OF ILLINOIS, priority 2024, published 2025).

What was measured:
[1] = test system: intracellular levels of NO; experiment: Intracellular NO levels in 4T1-Luc cells with BL660NO probe; format: cell-based, murine; settings: 30 minutes
Description: FIG. 14A-D. a) 4T1-Luc cells administered BL660NO (NO-responsive bioluminescent probe; 39 μM) after incubation with DEA-NONOate (50 μM) for 30 minutes. b) Quantified data from a. c) 4T1-Luc cells administered BL660NO (20 μM) after incubation with L-NMMA (1 mM) for 30 minutes. d) Quantified data from c. Statistical analysis was performed using two-tailed Student's t-test with Welch's correction (α=0.05), *ρ<0.05.

ALDH1A1 [2] = target: T1, ALDH1A1 (Mus musculus, UniProt P24549); experiment: Validation of ALDH-mediated activation of AlDeLuc in heterotopic breast cancer model via DEAB inhibition; format: in vivo, BALB/c mice; design: from tissue; host or cells: 4T1-Luc tumours in BALB/c mice
T1 sequence (P24549 1-501): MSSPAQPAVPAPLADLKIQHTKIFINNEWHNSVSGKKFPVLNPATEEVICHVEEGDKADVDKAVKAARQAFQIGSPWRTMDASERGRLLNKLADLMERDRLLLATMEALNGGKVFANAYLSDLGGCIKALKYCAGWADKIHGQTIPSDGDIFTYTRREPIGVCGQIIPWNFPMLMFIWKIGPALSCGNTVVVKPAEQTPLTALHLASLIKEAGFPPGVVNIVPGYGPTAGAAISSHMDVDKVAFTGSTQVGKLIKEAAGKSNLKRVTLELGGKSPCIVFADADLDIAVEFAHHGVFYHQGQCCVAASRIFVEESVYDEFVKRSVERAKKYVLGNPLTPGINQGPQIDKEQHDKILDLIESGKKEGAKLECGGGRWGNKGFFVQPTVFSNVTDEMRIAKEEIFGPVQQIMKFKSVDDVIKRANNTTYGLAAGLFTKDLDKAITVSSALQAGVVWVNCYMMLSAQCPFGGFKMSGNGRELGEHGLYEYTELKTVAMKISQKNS
Description: Validation of ALDH-mediated Activation of AlDeLuc in a Heterotopic Breast Cancer Model via DEAB Inhibition. BALB/c mice bearing 4T1-Luc tumors were anesthetized using isoflurane (1-3% for maintenance; up to 5% for induction) in oxygen from a precision vaporizer. After testing to ensure animals are fully under anesthesia, each mouse was administered AlDeLuc via retro-orbital injection (0.55 mg/kg, 1:19 v/v DMSO:PBS). Images were captured using the IVIS imaging system 40 minutes after injection. Bioluminescence light was captured in open mode (no filters were applied). ROIs were drawn around each tumor and summed for each animal. The signal intensity was quantified using the Living Image Analysis Software. After two days, the same animals were anesthetized and co-administered a solution of AlDeLuc and DEAB (0.55 mg/kg and 93 mg/kg respectively, 1:19 v/v DMSO:PBS). After the allotted 40 minutes, the images were captured using the IVIS imaging system. Bioluminescence was collected in open mode (no filters were applied). ROIS were drawn around each tumor and summed for each animal. The signal intensity was quantified using the Living Image Analysis Software.

ALDH1A1 [3] = target: T1, ALDH1A1; experiment: DEAB inhibition of AlDeLuc activation in 4T1 cells; format: cell-based, murine; design: host or cells: 4T1 murine mammary carcinoma cells; settings: DEAB 500 μM; AlDeLuc 100 μM; 4T1 lysates
Description: Validation of ALDH-Mediated Activation of AlDeLuc in Murine Breast Cancer Cells. 4T1 cells were cultured in T75 culture flasks. After two days, cells had become ˜90% confluent. An aliquot of RPMI 1640 media (1 mL) was removed from each flask and replaced with either DEAB ([…], 0.5% DMSO) or vehicle (0.5% DMSO). After incubation for one hour, the solutions were aspirated, washed with PBS, and resuspended in fresh RPMI 1640 media (9 mL). Each flask was then incubated with the AlDeLuc (100 μM) and DEAB (500 μM) or AlDeLuc (100 μM) and vehicle (DMSO), each with a final concentration of 1% DMSO. After 60 minutes, this solution was aspirated, washed with fresh PBS, and detached from the culture flasks. The cells were then transferred to a 15 mL centrifuge tube and pelleted at 1000 rpm for 5 minutes at room temp. The cells were resuspended in PBS along with 10% protease inhibitor solution (1 protease inhibitor mini tablet per 10 mL of PBS, Pierce, Thermo Fisher Scientific) and sonicated on ice for 2.5 minutes (pulse 01, 01, 40%). The cell debris was removed via centrifugation and the supernatant was plated ([…]) into a 96-well plate (n=4 for each condition). […] ROIs were drawn around each well and the signal intensity was quantified using the Living Image Analysis software.

[4] = test system: ALDH1A1 activity in 4T1 cells; experiment: Effect of nitric oxide (DETA NONOate) on ALDH1A1 activity in 4T1 cells using AlDeLuc; format: cell-based, murine; settings: DETA NONOate 50 μM, 2-day treatment; AlDeLuc 2 μM
Description: Exploring the Effect of Nitric Oxide on ALDH1A1 activity in 4T1 Cells Using AlDeLuc. 4T1 cells were cultured in T75 flasks, and once they reached ˜30% confluency (1 day), the media was removed and replaced with fresh RPMI 1640 media supplemented with either DETA NONOate (50 μM) or vehicle (media). After 24 hours, the media was aspirated, and the cells were treated once more with RPMI 1640 media containing either DETA NONOate (50 μM) or vehicle (media). After […], the suspension was removed and cells were treated with AlDeLuc (2 μM, final concentration of 0.01% DMSO). After 60 minutes the AlDeLuc solution was aspirated, washed with fresh PBS, and detached from the culture flasks. The cells were then transferred to a 15 mL centrifuge tube and pelleted at 1000 rpm for 5 minutes at room temp. The cells were resuspended in PBS along with 10% protease inhibitor solution (1 protease inhibitor mini tablet per 10 mL of PBS, Pierce, Thermo Fisher Scientific) and sonicated on ice for 2.5 minutes (pulse 01, 01, 40%). The cell debris was removed via centrifugation and the supernatant was plated (95 μL/well) into a 96-well plate (n=4 for each condition). Each well was treated with luciferase (5 μL, 1 mg/mL) and immediately imaged using the IVIS imaging system in open mode. ROIs were drawn around each well and the signal intensity was quantified using the Living Image Analysis software.

ALDH1A1 activity = experiment: High-fat diet inflammatory model, orthotopic 4T1-Luc tumors, AlDeLuc imaging after L-NMMA; format: in vivo, BALB/c mice; settings: L-NMMA 50 mg/kg oral gavage 20 days, AlDeLuc 0.55 mg/kg
Description: (§1) Finally, to examine how NO influences ALDH1A1 activity in vivo we placed BALB/c mice (female, 5-7 weeks old) on a high-fat diet for 40 weeks to induce an inflammatory response through elevated NO production. This period consists of a ˜20-week priming period prior to inoculation of the animals with 4T1-Luc cells at the mammary fat pad. At this point, the mice were randomized into two groups. The treatment group was administered L-NMMA (50 mg/kg), whereas the control group received water via oral gavage for 20 days. The day after the final treatment, mice from both conditions were treated systemically with AlDeLuc, and the bioluminescence was monitored (FIG. 5e). […] At the completion of the diet study, animals were sacrificed, and their tumors were excised for further immunohistochemical analysis.
Generation of an Orthotopic 4T1-Luc Breast Cancer Model for Diet Studies. Female BALB/c mice (˜6 weeks old) were inoculated with 4T1-Luc cells (50 μL of 1×10^5 cells in 1:1 v/v serum-free RPMI 1640 media and Matrigel) via subcutaneous injections into the mammary fat pad. Tumor volumes were measured using the caliper method every three days. Body weight was measured daily over the course of the experiment.

[5] = test system: ALDH1A1 activity in 4T1 cells; experiment: Influence of L-NMMA on ALDH1A1 activity in 4T1 cells using AlDeLuc; format: cell-based, murine; settings: L-NMMA 1 mM; AlDeLuc 50 μM
Description: Influence of L-NMMA on ALDH1A1 activity in 4T1 Cells Using AlDeLuc. 4T1 cells were cultured in T75 culture flasks. After two days, cells had become ˜90% confluent. The media was aspirated and 9 mL of fresh media was added. The flasks were then treated with L-NMMA (1 mM, cell culture water) or vehicle (cell culture water). After incubation for 60 minutes, the solutions were aspirated, washed with PBS, and resuspended in fresh RPMI 1640 media (9 mL). AlDeLuc was added to each flask (50 M, 5% v/v DMSO:PBS) for a final concentration of 0.5% DMSO per flask. After 60 minutes this solution was aspirated, washed with fresh PBS, and detached from the culture flasks. The cells were then transferred to a 15 mL centrifuge tube and pelleted at 1000 rpm for 5 minutes at room temp. The cells were resuspended in PBS along with 10% protease inhibitor solution (1 protease inhibitor mini tablet per 10 mL of PBS, Pierce, Thermo Fisher Scientific) and sonicated on ice for 2.5 minutes (pulse 01, 01, 40%). The cell debris was removed via centrifugation and the supernatant was plated (95 L/well) into a 96-well plate (n=4 for each condition). Each well was treated with luciferase (5 μL, 1 mg/mL) and immediately imaged using the IVIS imaging system in open mode. ROIs were drawn around each well and the signal intensity was quantified using the Living Image Analysis software.

ALDH1A1 [6] = experiment: Immunohistochemical analysis of excised 4T1-Luc tumors; format: in vivo, BALB/c mice; settings: L-NMMA 50 mg/kg versus vehicle; high-fat diet; opposite to reduced iNOS
Description: as §1

iNOS = experiment: as above; format: in vivo, BALB/c mice; settings: L-NMMA 50 mg/kg versus vehicle; high-fat diet
Text: as §1, with “Diet-Induced Inflammation Modulates ALDH1A1 Activity in a Murine Model of Breast Cancer. Finally,” for “Finally,”, “analysis. Specifically, we determined that iNOS expression in tumors treated with L-NMMA was reduced. […] That is, reducing the levels of NO has the effect of increasing ALDH1A1 activity (as determined with AlDeLuc), as well as overall protein expression levels (FIG. 5h).” for “analysis.”

[7] = test system: ALDH1A1 activity in 4T1 cells; experiment: Influence of interferon-gamma on ALDH1A1 activity in 4T1 cells using AlDeLuc; format: cell-based, murine; settings: INF-γ 26.8 ng/mL, 12 hours; AlDeLuc 50 μM
Description: Influence of Interferon-gamma (INF-γ) on ALDH1A1 activity in 4T1 Cells Using AlDeLuc. 4T1 cells were cultured in T75 culture flasks. After two days, cells had become ˜90% confluent. An aliquot of RPMI 1640 was removed (26.8 μL) and the flasks were then treated with INF-γ (26.8 μL of […] stock in PBS, 26.8 ng/mL final conc.) or vehicle (26.8 μL PBS). After 12 hours, the solutions were aspirated, washed with PBS, and resuspended in fresh RPMI 1640 media (9 mL). AlDeLuc was added to each flask ([…], 5% v/v DMSO:PBS) for a final concentration of 0.5% DMSO per flask. After 60 minutes this solution was aspirated, washed with fresh PBS, and detached from the culture flasks. The cells were then transferred to a 15 mL centrifuge tube and pelleted at 1000 rpm for 5 minutes at room temp. The cells were resuspended in PBS along with 10% protease inhibitor solution (1 protease inhibitor mini tablet per 10 mL of PBS, Pierce, Thermo Fisher Scientific) and sonicated on ice for 2.5 minutes (pulse 01, 01, 40%). The cell debris was removed via centrifugation and the supernatant was plated (95 μL/well) into a 96-well plate (n=4 for each condition). Each well was treated with luciferase (5 μL, 1 mg/mL) and immediately imaged using the IVIS imaging system in open mode. ROIs were drawn around each well and the signal intensity was quantified using the Living Image Analysis software.

Molecule: CCN(CC)/[N+]([O-])=N/O.CCNCC [DEA NONOate]
- intracellular levels of NO ([1]; DEA NONOate 50 μM): increasing

Molecule: CCN(CC)c1ccc(C=O)cc1 [DEAB, diethylaminobenzaldehyde]
- difference in total luminescent counts, AlDeLuc alone versus DEAB co-treated (ALDH1A1 [2]; DEAB 93 mg/kg, AlDeLuc 0.55 mg/kg): 2.8 fold
- total luminescent counts (ALDH1A1 [2]; co-treated DEAB 93 mg/kg and AlDeLuc 0.55 mg/kg, 40 min): 0.78±0.28×10^4
- diminished bioluminescent signal relative to uninhibited cells (ALDH1A1 [3]): approximately 5 fold

Molecule: NCCN(CCN)/[N+]([O-])=N/O [DETA NONOate]
- bioluminescence decreased [4]: 1.3 fold

Molecule: CNC(=N)NCCC[C@H](N)C(=O)O [L-NMMA]
- enhancement in total luminescent counts compared to control group (ALDH1A1 activity): 5.9 fold
- total luminescent counts (ALDH1A1 activity; 40 min): 9.9±2.7×10^4
- bioluminescence higher compared to vehicle-treated cells [5]: 2.4 fold
- ALDH1A1 expression in tumors (ALDH1A1 [6]): opposite trend
- intracellular levels of NO ([1]; L-NMMA 1 mM): decreasing
- iNOS expression in tumors (iNOS): reduced

Molecule: IFN-γ: interferon gamma, shown to stimulate NO production via inducible nitric oxide synthase
- bioluminescence signal lower relative to vehicle-treated control cells [7]: 3.2 fold
